# Laboratory results reported in ChEMBL document CHEMBL1127759, “Synthesis and in vitro cytotoxicity of 6-vinyluridine and related compounds” (Bioorg Med Chem Lett, 1994).
# Tested on: L1210
# Assay: In vitro growth inhibitory activity against mouse L1210 leukemia cells
# Format: functional, cell-based
row,Structure (SMILES),IC50 [µM]
1,CCOC(=O)/C(Br)=C\c1cc(O)nc(O)n1,1
2,C/C=C/c1cc(O)nc(O)n1,> 90
3,CCOC(=O)/C(Cl)=C\c1cc(O)nc(O)n1,3
4,CCOC(=O)/C=C/c1cc(O)nc(O)n1,38
5,CCOC(=O)/C=C/c1cc(=O)[nH]c(=O)n1C1O[C@H](CO)[C@@H](O)[C@H]1O (some centres undefined),> 35
6,C=Cc1cc(=O)[nH]c(=O)n1C1O[C@H](CO)[C@@H](O)[C@H]1O (some centres undefined),12

# The next lines start with the values.
row,IC50 [µM],Structure (SMILES)
1,11,C=Cc1nc(O)nc(O)c1Br
2,46,C/C=C\c1cc(O)nc(O)n1
3,3,C=Cc1cc(O)nc(O)n1
4,4.5,C=Cc1nc(O)nc(O)c1Cl
5,2,C=Cc1nc(O)nc(O)c1I
6,> 25,COC(=O)/C(Br)=C\c1cc(=O)[nH]c(=O)n1C1O[C@H](CO)[C@@H](O)[C@H]1O (some centres undefined)
7,> 30,CCOC(=O)/C(C)=C/c1cc(=O)[nH]c(=O)n1C1O[C@H](CO)[C@@H](O)[C@H]1O (some centres undefined)
8,> 35,C/C=C/c1cc(=O)[nH]c(=O)n1C1O[C@H](CO)[C@@H](O)[C@H]1O (some centres undefined)
